This is an account of results in article PMC12163657 (ACS Omega, 2025).

SMILES strings stand for the structures.

In data set [1] the target is T1, ERα LBD (Homo sapiens, UniProt P03372).
T1 sequence (P03372 311-547 limits assumed): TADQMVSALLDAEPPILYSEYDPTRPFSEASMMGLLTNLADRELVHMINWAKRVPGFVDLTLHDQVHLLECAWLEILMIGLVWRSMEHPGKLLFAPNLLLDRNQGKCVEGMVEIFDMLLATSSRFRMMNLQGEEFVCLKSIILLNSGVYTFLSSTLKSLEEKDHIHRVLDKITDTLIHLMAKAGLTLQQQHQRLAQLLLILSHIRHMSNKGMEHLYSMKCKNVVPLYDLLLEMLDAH
Description: LanthaScreen TR-FRET ERα competitive binding assay. In general terms: Time-resolved FRET reads energy transfer from a long-lived donor to a nearby acceptor.

Data set [2] deals with T2, ERα (Homo sapiens, UniProt P03372).
T2 sequence (P03372 1-595): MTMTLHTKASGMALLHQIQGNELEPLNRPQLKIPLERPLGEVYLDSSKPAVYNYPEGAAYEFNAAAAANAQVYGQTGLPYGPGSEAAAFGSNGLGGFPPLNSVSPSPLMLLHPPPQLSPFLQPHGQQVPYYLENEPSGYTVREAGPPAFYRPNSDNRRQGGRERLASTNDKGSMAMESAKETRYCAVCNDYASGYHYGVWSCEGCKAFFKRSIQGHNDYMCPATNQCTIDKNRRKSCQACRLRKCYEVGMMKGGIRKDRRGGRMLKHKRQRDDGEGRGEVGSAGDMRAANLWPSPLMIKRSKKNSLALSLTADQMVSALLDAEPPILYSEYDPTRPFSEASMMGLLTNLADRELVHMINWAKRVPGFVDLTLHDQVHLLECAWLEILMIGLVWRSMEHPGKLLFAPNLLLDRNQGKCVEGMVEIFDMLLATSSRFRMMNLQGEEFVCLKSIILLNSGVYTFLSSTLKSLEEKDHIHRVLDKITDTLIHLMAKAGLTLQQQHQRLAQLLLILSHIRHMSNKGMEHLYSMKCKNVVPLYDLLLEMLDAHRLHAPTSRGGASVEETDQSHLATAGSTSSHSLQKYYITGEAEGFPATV
As to the kind of experiment: Alkaline phosphatase. Type of data set: cell-based.

The nature of data set [3]: Mouse hepatocyte stability. The class given is in vitro ADME. The following applies: hepatocytes.
A short description of data set [4]: Human hepatocyte stability. The class given is in vitro ADME. The settings on record: hepatocytes.
Data set [5] in a line: In vivo mouse oral single dose PK. The settings on record: for total AUCinf / free AUCinf: oral single dose; for free AUCinf: estimated based on the percent free fraction; for Cmax / half-life: plasma, po.
A short description of data set [6]: Plasma protein binding, rapid equilibrium dialysis, mouse plasma. The class given is in vitro ADME. The settings on record: undiluted plasma. In general terms: Equilibrium dialysis compares concentrations on both sides of a semipermeable membrane.
Data set [7] deals with E2-induced uterine wet weight. As to the kind of experiment: Ovariectomized mouse uterine wet weight study. The class given is in vivo. The following applies: dose giving 50% inhibition of E2-induced uterine wet weight; oral, once daily, 3 days.

One may read the IC50 as the concentration needed to halve the response being measured. Low readings indicate greater potency in that assay, high ones weaker potency in that assay. The term half-life denotes how long it takes for the measured level to halve. A high value points to slow loss. A word on the hepatocyte CLint: it is the capacity of the preparation to metabolise the compound, expressed as a volume cleared per time. A word on the Cmax: it is the highest concentration seen after dosing. What is called fraction unbound is free concentration divided by total concentration. A lower fraction unbound goes with little free substance.

In data set [1], `C[C@@H]1Cc2c([nH]c3ccccc23)[C@@H](c2ccc(OCCN3CC(CF)C3)cc2)N1CC(C)(C)F` [compound 23, C[C@@H]1Cc2c([nH]c3ccccc23)[C@H](N1CC(C)(C)F)c1ccc(cc1)OCCN1CC(CF)C1] gave a concentration for half-maximal inhibition (IC50) of 1.58 nM. This molecule showed a concentration for half-maximal inhibition (IC50) in data set [2] of 1.26 nM. Further, in data set [3], the half-life worked out at 5.37 h and the hepatocyte CLint turned out to be 4.3 µL/min/1e6 cells. In data set [4], this molecule yielded a half-life of 3.82 h and a hepatocyte CLint of 6.1 µL/min/1e6 cells. Besides, in data set [5], the “total AUCinf” value stood at 2289 ng·h/mL, the “free AUCinf” value was 3.9 ng·h/mL, the concentration peaked (Cmax) at 186 ng/mL and the half-life was 7 h. In data set [6], the fraction unbound at 4 h, 1 µM was 0.0017. Moreover, the “uterine wet weight ID50” value in data set [7] is <0.1 mg/kg.

With `C[C@@H]1Cc2c([nH]c3ccccc23)[C@@H](c2c(F)cc(OCCN3CC(CF)C3)cc2F)N1CC(C)(C)F` [compound 30, C[C@@H]1Cc2c([nH]c3ccccc23)[C@H](N1CC(C)(C)F)c1c(cc(cc1F)OCCN1CC(CF)C1)F], in data set [3], the half-life is > 6 h and the hepatocyte CLint was < 3.9 µL/min/1e6 cells. For the same molecule, in data set [4], the half-life is 4.5 h and the hepatocyte CLint came to 5.1 µL/min/1e6 cells. Also, in data set [5], the “total AUCinf” value was found to be 2090 ng·h/mL, the “free AUCinf” value is 0.8 ng·h/mL, the peak level (Cmax) was 112 ng/mL and the half-life was 11 h. In data set [6], the fraction unbound at 4 h, 1 µM was found to be 0.0004.

In the case of `CCCN1CC(Oc2cc(F)c([C@@H]3c4[nH]c5ccccc5c4C[C@@H](C)N3CC(C)(C)F)c(F)c2)C1` [compound 32, CCCN1CC(C1)Oc1cc(c(c(c1)F)[C@H]1N(CC(C)(C)F)[C@H](C)Cc2c1[nH]c1ccccc21)F], in data set [3], the half-life was > 6 h and the hepatocyte CLint is < 3.9 µL/min/1e6 cells. In data set [4], this molecule had a half-life of 5.4 h and a hepatocyte CLint of 4.3 µL/min/1e6 cells. Further, in data set [5], the “total AUCinf” value came to 2743 ng·h/mL, the “free AUCinf” value was 0.3 ng·h/mL, the peak level (Cmax) was 219 ng/mL and the half-life was 15 h. Moreover, the fraction unbound at 4 h, 1 µM in data set [6] was 0.0001.
